Like-named read-outs stand apart in the source and are kept apart here.
Experiments:
[1] = system: carrageenan-induced paw edema in male Sprague-Dawley rats; assay: Carrageenan-induced paw edema (CPE) model; type: in vivo; details: rat, oral gavage 2 h before carrageenan, paws taken 3 h after, mean of 5 determinations
Source text: Carrageenans are a group of polysaccharides which can induce an acute inflammatory response in animals. Cardinal signs of inflammation including edema, hyperalgesia and erythema are developed in the injection site immediately following injection. The CPE model is a recognized model of inflammation and can be used to evaluate the anti-inflammatory effects of glucocorticoid receptor ligands.
To evaluate the anti-inflammatory effects of Compound (I), the compound is formulated in a vehicle comprising 0.5% carboxymethyl cellulose and 0.25% Tween 80 then administered orally via gavage to male Sprague-Dawley rats (180-200 g). For comparison, prednisolone may be administered orally in the same vehicle. Two hours later, 1% carrageenan in 50 μl of 0.9% pyrogen free saline is injected into the subplantar regions of the right hind paw. Rats are euthanized by CO2 at 3 hours after the carrageenan injection. Paws are removed then weighed using a microbalance. Paws are then dissected by making several cuts on the paw surface and immediately immersing into liquid nitrogen until frozen. Frozen paws are then centrifuged to extract the exudates. Exudate levels of IL-1β, a cytokine generated during the inflammatory response is then measured by ELISA according to manufacturers instructions. Total paw protein is also measured using a protein assay kit and the absolute level of IL-1β is normalized to yield a concentration value of ng IL-1β/mg total protein.

[2] = molecular target: T1, human MR (mineralocorticoid receptor) (Homo sapiens, UniProt P08235); assay: Nuclear hormone receptor competition binding assay, MR; details: HEK293 lysate overexpressing human MR, [3H]-aldosterone; mean of n=7
T1 construct: expressed in transfected cells; host or cells: HEK293 (293-MR lysate)
T1 sequence (P08235 1-984): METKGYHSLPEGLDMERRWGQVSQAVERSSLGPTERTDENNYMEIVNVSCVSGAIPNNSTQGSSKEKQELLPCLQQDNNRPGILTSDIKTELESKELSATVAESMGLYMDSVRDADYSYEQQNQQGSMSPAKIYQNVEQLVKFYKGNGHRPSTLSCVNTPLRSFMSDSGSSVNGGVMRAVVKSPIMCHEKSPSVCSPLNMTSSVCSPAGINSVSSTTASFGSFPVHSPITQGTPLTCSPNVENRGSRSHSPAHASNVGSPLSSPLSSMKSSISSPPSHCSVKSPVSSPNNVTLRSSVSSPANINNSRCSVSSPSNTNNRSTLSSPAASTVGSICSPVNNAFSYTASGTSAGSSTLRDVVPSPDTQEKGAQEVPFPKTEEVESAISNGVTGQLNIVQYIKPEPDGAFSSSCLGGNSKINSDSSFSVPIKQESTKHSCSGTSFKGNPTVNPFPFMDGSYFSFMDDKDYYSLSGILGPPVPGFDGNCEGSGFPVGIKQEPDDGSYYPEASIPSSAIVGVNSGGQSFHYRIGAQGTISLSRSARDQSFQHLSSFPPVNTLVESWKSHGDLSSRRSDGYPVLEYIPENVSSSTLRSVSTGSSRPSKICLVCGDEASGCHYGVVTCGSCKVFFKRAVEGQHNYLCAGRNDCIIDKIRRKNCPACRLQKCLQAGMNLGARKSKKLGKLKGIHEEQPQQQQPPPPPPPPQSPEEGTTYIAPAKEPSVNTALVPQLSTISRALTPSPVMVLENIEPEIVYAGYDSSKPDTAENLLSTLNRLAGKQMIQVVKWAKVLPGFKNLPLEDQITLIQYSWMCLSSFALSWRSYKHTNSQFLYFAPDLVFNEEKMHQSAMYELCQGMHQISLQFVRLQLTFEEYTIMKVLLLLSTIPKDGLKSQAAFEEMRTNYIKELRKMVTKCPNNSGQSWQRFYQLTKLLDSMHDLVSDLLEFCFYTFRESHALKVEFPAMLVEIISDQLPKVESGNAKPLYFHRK
Experimental: Cell lysates from human embryonic kidney HEK293 cells overexpressing human GR (glucocorticoid receptor), AR (androgen receptor), MR (mineralocorticoid receptor), or PR (progesterone receptor) are used for receptor-ligand competition binding assays to determine Ki values.
Briefly, steroid receptor competition binding assays are run in a buffer containing 20 mM Hepes buffer (pH=7.6), 0.2 mM EDTA, 75 mM NaCl, 1.5 mM MgCl2, 20% glycerol, 20 mM sodium molybdate, 0.2 mM DTT (dithiothreitol), 20 μg/ml aprotinin and 20 μg/ml leupeptin. Typically, steroid receptor binding assays include radio-labeled ligands, such as 0.3 nM [^3H]-dexamethasone for GR binding, 0.36 nM [^3H]-methyltrienolone for AR binding, 0.25 nM [^3H]-aldosterone for MR binding, and 0.29 nM [^3H]-methyltrienolone for PR binding, and either 20 μg 293-GR lysate, 22 μg 293-AR lysate, 20 μg 293-MR lysate or 40 μg 293-PR lysate per well. Assays are typically run in 96-well format. Competing test compounds are added at various concentrations ranging from about 0.01 nM to 10 μM. Non-specific binding is determined in the presence of 500 nM dexamethasone for GR binding, 500 nM aldosterone for MR binding, or 500 nM methyltrienolone for AR and PR binding. […] After an incubation of 2 hours, plates are read in a Wallac Microbeta counter. […]

CC/C(=C1\c2ccc(F)cc2OCc2ncccc21)c1cccc(NS(C)(=O)=O)c1 [Compound (I), (E)-N-{3-[1-(8-Fluoro-11H-10-oxa-1-aza-dibenzo[a,d]cyclohepten-5-ylidene)-propyl]-phenyl}-methanesulfonamide]
ED50 ([1]; read-out: ED50, inhibition of carrageenan induced paw weight gain): ~2.8 mg/kg | ED50 ([1]; read-out: ED50, reduction of paw exudate levels of IL-1β): ~3.2 mg/kg | Ki [2]: ~9.2 nM

Reference: patent US8101761B2, “(E)-N-{3-[1-(8-fluoro-11H-10-OXA-1-AZA-dibenzo [A,D] cyclohepten-5ylidene)-propyl]-phenyl}-methanesulfonamide as glucocorticoid receptor modulator for the treatment of rheumatoid arthritis” (Eli Lilly and Company, priority 2008, dated 2012)
